In patent publication US7473790B2 (Pfizer Inc., priority 2003, dated 2009) one finds IC50 and inhibition data, which are given here for 29 compounds.

The target in this assay is T1, HCV polymerase (Hepatitis C virus genotype 1b, UniProt P26663).
T1 construct: 2.5 pmoles (0.15 μg) HCV polymerase protein in a final volume of 75 μL
Put plainly: HCV polymerase primer/template-directed transcription assay (32P-GTP incorporation, filter binding). Format: biochemical. To be noted: for IC50: recombinant HCV polymerase, 30 minutes at 30° C., concentration giving 50% inhibition of polymerase-directed transcription, read-out: IC50; for inhibition at 50 µM: @ 50 uM compound, given where IC50 was impractical to calculate, read-out: percent inhibition. An outline of the steps:
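IC50s come from triplicate cpm, refit with an enzyme-concentration (30 nM) correction when under 200 nM. Reactions ran 30 min at 30° C in Tris pH 7.2 with MgCl2, 1 μM GTP spiked with α-32P-GTP, biotin-dG12 primer and poly(rC)300 template, with 1% DMSO. Incorporated label was collected on DE filtermats and counted.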

T1 sequence (P26663 2420-3010): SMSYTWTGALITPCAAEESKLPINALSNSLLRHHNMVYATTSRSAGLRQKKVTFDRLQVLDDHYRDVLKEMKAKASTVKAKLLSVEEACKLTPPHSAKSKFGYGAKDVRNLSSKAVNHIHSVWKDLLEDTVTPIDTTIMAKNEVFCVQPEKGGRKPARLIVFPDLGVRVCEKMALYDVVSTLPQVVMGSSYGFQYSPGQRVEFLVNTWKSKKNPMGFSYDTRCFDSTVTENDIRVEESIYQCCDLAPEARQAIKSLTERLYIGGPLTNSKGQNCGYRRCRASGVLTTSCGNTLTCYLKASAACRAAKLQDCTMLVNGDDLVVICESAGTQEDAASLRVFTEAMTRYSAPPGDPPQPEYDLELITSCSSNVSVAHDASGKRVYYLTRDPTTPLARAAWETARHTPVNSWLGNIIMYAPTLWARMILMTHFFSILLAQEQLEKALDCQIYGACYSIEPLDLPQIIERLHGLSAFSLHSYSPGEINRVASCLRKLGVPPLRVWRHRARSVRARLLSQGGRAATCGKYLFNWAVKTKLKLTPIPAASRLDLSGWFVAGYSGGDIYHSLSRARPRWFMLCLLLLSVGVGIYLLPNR

In general, IC50 refers to the concentration at which inhibition is half-maximal. For the compound `Cn1ccc2cc(CC3=C(O)CC(CCc4ccc(C(C)(C)C#N)c(F)c4)(C4CCCC4)OC3=O)ccc21` (centres unmarked) [B(92), 2-[4-(2-{2-cyclopentyl-4-hydroxy-5-[(1-methyl-1H-indol-5-yl)methyl]-6-oxo-3,6-dihydro-2H-pyran-2-yl}ethyl)-2-fluorophenyl]-2-methylpropanenitrile], the IC50 came out at 8 nM. As to `CCc1cc(CCC2(C3CCCC3)CC(=O)CC(=O)O2)ccc1O` (centres unmarked) [A(22), 6-Cyclopentyl-6-[2-(3-ethyl-4-hydroxy-phenyl)-ethyl]-dihydro-pyran-2,4-dione], the IC50 was 300 nM. Still for that read-out and setting: with `Cc1cnc2nc(CC3=C(O)CC(CCc4cc(F)c(C5(C#N)CC5)c(F)c4)(C4CCCC4)OC3=O)nn2c1` (centres unmarked) [A(254)] the figure was 12 nM; with `COc1cc(OC)c(CCC2(C3CCCC3)CC(O)=C(Sc3nc4nc[nH]c(=O)c4[nH]3)C(=O)O2)cc1Cl` (centres unmarked) [C(70), 8-({6-[2-(5-chloro-2,4-dimethoxyphenyl)ethyl]-6-cyclopentyl-4-hydroxy-2-oxo-5,6-dihydro-2H-pyran-3-yl}thio)-1,7-dihydro-6H-purin-6-one], 7.4 nM; with `Cc1cc(C)n2nc(CC3=C(O)CC(CCc4ccc(OCC5CC5)c(Cl)c4)(C4CCCC4)OC3=O)nc2n1` (centres unmarked) [B(28), 6-[2-(3-Chloro-4-cyclopropylmethoxy-phenyl)-ethyl]-6-cyclopentyl-3-(5,7-dimethyl-[1,2,4]triazolo[1,5-a]pyrimidin-2-ylmethyl)-4-hydroxy-5,6-dihydro-pyran-2-one], 11 nM.

As for `COc1ccc(CCC2(C3CCCC3)CC(O)=C(Sc3nnc(-c4ccccc4)[nH]3)C(=O)O2)cc1Cl` (centres unmarked) [C(22), 6-[2-(3-Chloro-4-methoxy-phenyl)-ethyl]-6-cyclopentyl-3-(5-phenyl-4H-[1,2,4]triazol-3-ylsulfanyl)-dihydro-pyran-2,4-dione], the IC50 is 68 nM.

On to `N#CC1(c2ccc(CCC3(C4CCCC4)CC(O)=C(Cc4nc5ncc(Cl)cn5n4)C(=O)O3)cc2Cl)CC1` (centres unmarked) [B(126), 1-(2-Chloro-4-{2-[5-(6-chloro-[1,2,4]triazolo[1,5-a]pyrimidin-2-ylmethyl)-2-cyclopentyl-4-hydroxy-6-oxo-3,6-dihydro-2H-pyran-2-yl]-ethyl}-phenyl)-cyclopropanecarbonitrile], for which the half-inhibitory concentration (IC50) was found to be 23 nM.

Consider `CCn1cc(CCC2(C3CCCC3)CC(=O)CC(=O)O2)ccc1=O` (centres unmarked) [A(01), 6-Cyclopentyl-6-[2-(1-ethyl-6-oxo-1,6-dihydro-pyridin-3-yl)-ethyl]-dihydro-pyran-2,4-dione], for which the IC50 was determined as 38300 nM. A word on the inhibition: it is the relative decrease from the control value, in per cent. As to `COc1ccc(CCC2(CC(C)C)CC(=O)CC(=O)O2)cc1` (centres unmarked) [A(24), 6-Isobutyl-6-[2-(4-methoxy-phenyl)-ethyl]-dihydro-pyran-2,4-dione], the inhibition at 50 µM was 29%.

As for `Cc1cc(C)n2nc(CC3=C(O)CC(CCC(=O)NC4CCN(C(=O)OC(C)(C)C)CC4)(C4CCCC4)OC3=O)nc2n1` (centres unmarked) [B(109), 4-{3-[2-Cyclopentyl-5-(5,7-dimethyl-[1,2,4]triazolo[1,5-a]pyrimidin-2-ylmethyl)-4-hydroxy-6-oxo-3,6-dihydro-2H-pyran-2-yl]-propionylamino}-piperidine-1-carboxylic acid tert-butyl ester], the inhibition at 50 µM was 23%. Regarding `COc1cc(OC)c(CCC2(C3CCCC3)CC(O)=C(Cc3nc(C)nn3C)C(=O)O2)cc1Cl` (centres unmarked) [B(71), 6-[2-(5-Chloro-2,4-dimethoxyphenyl)ethyl]-6-cyclopentyl-3-[(1,3-dimethyl-1H-1,2,4-triazol-5-yl)methyl]-4-hydroxy-5,6-dihydro-2H-pyran-2-one], the IC50 is 80 nM. Still for that read-out and setting: for `COc1ccc(CCC2(C3CCCC3)CC(O)=C(Sc3ncc4[nH]cnc4n3)C(=O)O2)cc1Cl` (centres unmarked) [C(67), 6-[2-(3-chloro-4-methoxyphenyl)ethyl]-6-cyclopentyl-4-hydroxy-3-(7H-purin-2-ylthio)-5,6-dihydro-2H-pyran-2-one] the value was 50 nM; for `CCc1ccc(O)c(CCC2(C3CCCC3)CC(=O)CC(=O)O2)c1` (centres unmarked) [A(169), 6-Cyclopentyl-6-[2-(5-ethyl-2-hydroxy-phenyl)-ethyl]-dihydro-pyran-2,4-dione], 400 nM; for `COc1ccc(CCC2(C3CCCC3)CC(O)=C(Sc3nc4c(O)cccc4[nH]3)C(=O)O2)cc1Cl` (centres unmarked) [C(58), 6-[2-(3-chloro-4-methoxyphenyl)ethyl]-6-cyclopentyl-4-hydroxy-3-[(4-hydroxy-1H-benzimidazol-2-yl)thio]-5,6-dihydro-2H-pyran-2-one], 140 nM. Still for that read-out and setting: for `C=CCC1C(=O)CC(CCc2ccc(OC)c(Cl)c2)(C2CCCC2)OC1=O` (centres unmarked) [B(79), 3-allyl-6-[2-(3-chloro-4-methoxyphenyl)ethyl]-6-cyclopentyldihydro-2H-pyran-2,4(3H)-dione] the value was 2400 nM; for `Cc1cnc2nc(CC3=C(O)CC(CCc4cc(F)c(C(C)(C)C#N)c(F)c4)(C4CCCC4)OC3=O)nn2c1` (single isomer, unassigned; (-)) [A(258), (−)-2-(4-{2-[2-Cyclopentyl-4-hydroxy-5-(6-methyl-[1,2,4]triazolo[1,5-a]pyrimidin-2-ylmethyl)-6-oxo-3,6-dihydro-2H-pyran-2-yl]-ethyl}-2,6-difluoro-phenyl)-2-methyl-propionitrile], 2 nM; for `Cc1ccn2nc(CC3=C(O)CC(CCc4cc(F)c(C(C)(C)C#N)c(F)c4)(C4CCCC4)OC3=O)nc2n1` (centres unmarked) [A(253), 2-(4-{2-[2-Cyclopentyl-4-hydroxy-5-(5-methyl-[1,2,4]triazolo[1,5-a]pyrimidin-2-ylmethyl)-6-oxo-3,6-dihydro-2H-pyran-2-yl]-ethyl}-2,6-difluoro-phenyl)-2-methyl-propionitrile], 6 nM.

As to `CCn1nnnc1SC1=C(O)CC(CCc2ccc(OC)c(Cl)c2)(C2CCCC2)OC1=O` (centres unmarked) [C(39), 6-[2-(3-chloro-4-methoxyphenyl)ethyl]-6-cyclopentyl-3-[(1-ethyl-1H-tetrazol-5-yl)thio]-4-hydroxy-5,6-dihydro-2H-pyran-2-one], the IC50 was 220 nM. Same read-out and setting: for `CC(C)(C#N)c1ccc(CCC2(C3CCCC3)CC(O)=C(Cc3cn4ccccc4n3)C(=O)O2)cc1F` (centres unmarked) [A(103), 2-(4-{2-[2-cyclopentyl-4-hydroxy-5-(imidazo[1,2-a]pyridin-2-ylmethyl)-6-oxo-3,6-dihydro-2H-pyran-2-yl]ethyl}-2-fluorophenyl)-2-methylpropanenitrile] the value was 180 nM; for `COC(=O)Nc1cc(CC2=C(O)CC(CCc3ccc(C(F)F)c(F)c3)(C3CCCC3)OC2=O)on1` (centres unmarked) [B(72), Methyl 5-[(6-cyclopentyl-6-{2-[4-(difluoromethyl)-3-fluorophenyl]ethyl}-4-hydroxy-2-oxo-5,6-dihydro-2H-pyran-3-yl)methyl]isoxazol-3-ylcarbamate], 1400 nM; for `CCc1ccc(O)c(CCC2(C3CCCC3)CC(O)=C(Cc3nc4nc(C)cc(C)n4n3)C(=O)O2)c1` (single isomer, unassigned; enantiomer 1) [A(167), Enantiomer 1 of 6-Cyclopentyl-3-(5,7-dimethyl-[1,2,4]triazolo[1,5-a]pyrimidin-2-ylmethyl)-6-[2-(5-ethyl-2-hydroxy-phenyl)-ethyl]-4-hydroxy-5,6-dihydro-pyran-2-one], 4 nM. For `COc1ccc(CCC2(C3CCCC3)CC(O)=C(Cc3ccc(S(C)(=O)=O)cc3)C(=O)O2)cc1Cl` (centres unmarked) [B(21), 6-[2-(3-Chloro-4-methoxy-phenyl)-ethyl]-6-cyclopentyl-4-hydroxy-3-(4-methanesulfonyl-benzyl)-5,6-dihydro-pyran-2-one], the half-inhibitory concentration (IC50) stood at 400 nM.

As to `CC(C)(O)c1ccc(CCC2(C3CCCC3)CC(O)=C(Cc3nc4ncccn4n3)C(=O)O2)cc1F` (centres unmarked) [A(220), 6-cyclopentyl-6-{2-[3-fluoro-4-(1-hydroxy-1-methylethyl)phenyl]ethyl}-4-hydroxy-3-([1,2,4]triazolo[1,5-a]pyrimidin-2-ylmethyl)-5,6-dihydro-2H-pyran-2-one], the 50% inhibitory concentration (IC50) amounted to 172 nM. Still for that read-out and setting: for `COc1ccc(CCC2(C3CCCC3)CC(O)=C(Sc3nc4cc(Cl)ccc4n3C)C(=O)O2)cc1Cl` (centres unmarked) [C(57), 6-[2-(3-chloro-4-methoxyphenyl)ethyl]-3-[(5-chloro-1-methyl-1H-benzimidazol-2-yl)thio]-6-cyclopentyl-4-hydroxy-5,6-dihydro-2H-pyran-2-one] the value was 2 nM. On to `CCCC1(CCc2ccc(OC)cc2)CC(=O)CC(=O)O1` (centres unmarked) [A(25), 6-[2-(4-Methoxy-phenyl)-ethyl]-6-propyl-dihydro-pyran-2,4-dione], for which the IC50 is 73900 nM.

Turning to `COc1ccc(CCC2(C3CCCC3)CC(=O)CC(=O)O2)cc1C1CC1` (centres unmarked) [A(130), 6-Cyclopentyl-6-[2-(3-cyclopropyl-4-methoxy-phenyl)-ethyl]-dihydro-pyran-2,4-dione], the half-inhibitory concentration (IC50) came to 1300 nM.

In the case of `CCC1(C)CC(O)=C(Sc2nc3nc(C)cc(C)n3n2)C(=O)O1` (centres unmarked) [C(21), 3-(5,7-Dimethyl-[1,2,4]triazolo[1,5-a]pyrimidin-2-ylsulfanyl)-6-ethyl-4-hydroxy-6-methyl-5,6-dihydro-pyran-2-one], the inhibition at 50 µM was 12%. Regarding `CN(C)C(=O)c1ccc(CCC2(C3CCCC3)CC(=O)CC(=O)O2)cc1F` (centres unmarked) [A(16), 4-[2-(2-Cyclopentyl-4,6-dioxo-tetrahydro-pyran-2-yl)-ethyl]-2-fluoro-N,N-dimethyl-benzamide], the IC50 was found to be 14400 nM.

For the compound `Cc1cc(C)n2nc(CC3=C(O)CC(CCc4ccc(-c5c(C)noc5C)cc4)(C4CCCC4)OC3=O)nc2n1` (centres unmarked) [B(04), 6-Cyclopentyl-6-{2-[4-(3,5-dimethyl-isoxazol-4-yl)-phenyl]-ethyl}-3-(5,7-dimethyl-[1,2,4]triazolo[1,5-a]pyrimidin-2-ylmethyl)-4-hydroxy-5,6-dihydro-pyran-2-one], the half-maximal inhibitory concentration (IC50) is 24 nM.
